Laboratory results reported in US20230263897A1, “CONJUGATE OF GALNAC AND SAPONIN, […] COMPOSITION COMPRISING SAID CONJUGATE AND A GALNAC-OLIGO[…]” (SAPREME TECHNOLOGIES B.V., priority 2020, published 2023).
pIC50: −log10 of the molar value. [BNANC] = BNA^NC bridged nucleic acid sugar; {ThiolC6} = Thiol C6 linker; d = 2'-deoxy (DNA)

Legend:
ApoB RNA [1] = assay: ApoB RNA expression analysis in mouse primary hepatocytes; type: cell-based; conditions: alone
Excerpt: Cryopreserved primary mouse hepatocytes ([…] Cell Culture Technology GmbH, Germany) were thawed in hepatocyte thawing media (HTM, […] Cell Culture Technology GmbH, Germany) and washed 1× with hepatocyte wash media (HWM, […] Cell Culture Technology GmbH, Germany). Cells were re-suspended in hepatocyte plating media (HPM Cryo, […] Cell Culture Technology GmbH, Germany) at a density of approx. 0.275×10^6 cells/ml.
RNA from cells was isolated using TRI Reagent® Solution (Thermo Scientific) according to the manufacturer's instruction. Conversion into cDNA was performed using iScript™ cDNA Synthesis Kit (BioRad) using standard protocols. ApoB expression levels and levels of specific hepatocyte housekeeping genes were determined using quantitative real-time PCR assays (qRT-PCR) using iTaq™ Universal SYBR® Green Supermix (BioRad) and the Light Cycler 480 (Roche Diagnostics, Rotkreuz, Switzerland) with specific DNA primers, listed in Table A4. Analysis was done by the ΔCt method to determine ApoB expression relative to 2 hepatocyte-specific housekeeping control mRNAs. Each analysis reaction was performed in triplicate.

LDL-cholesterol = assay: Serum LDL-cholesterol analysis in C57BL/6J mice; type: in vivo
Protocol: (§1) • Dose administration and in-life phase. Per group, 8 C57BL/6J male mice for treatment groups and 14 in vehicle control group, approximately 6-7 weeks at arrival and 8-9 weeks at dosing, were dosed. The compounds, formulated in PBS or PBS alone (vehicle) according to Table A5, were dosed at 5 ml/kg in the tail vain (intravenously, iv), with dose volumes corresponding to the individual bodyweights. Where applicable, trivalent GalNAc-SO1861-EMCH was co-administered at 5 ml/kg in the tail vain (iv) right after the trivalent GalNAc-ApoB conjugate. Animals were weighed weekly and clinical observations were performed 2-3 times daily within the first 48 hrs, and at least once daily thereafter until study end. • Sampling of serum, liver, and kidney tissue. […] One half of the liver and one kidney was frozen and used for tissue RNA analysis.
LDL-cholesterol was measured in mouse serum, using an LDL-cholesterol specific two-step AU480 assay kit, respectively, from Beckman Coulter, with a photometric measurement according to the manufacturer's instructions.

[2] = In vivo tolerability (clinical observations, body weight) in C57BL/6J mice; conditions: doses and dose regimen of Table A5, iv, up to 336 hrs
Protocol: During the study period, ALT levels for vehicle mice ranged from an average 47 to 61 U/L per group (n=6 animals for vehicle).
as §1

ApoB RNA [3] = assay: ApoB RNA expression analysis in liver tissue of C57BL/6J mice; type: in vivo
Protocol: as §1
The mRNA was isolated from frozen liver tissue using TRzol® Reagent (Thermo Scientific) according to the manufacturer's instruction. Conversion into cDNA was performed using Script™ cDNA Synthesis Kit (BioRad). ApoB expression levels and levels of specific liver housekeeping genes were determined using quantitative real-time PCR assays (qRT-PCR) using iTaq™ Universal SYBR® Green Supermix (BioRad) and the Light Cycler 480 (Roche Diagnostics, Rotkreuz, Switzerland) with specific DNA primers, listed in Table A5. Analysis was done by the ΔCt method to determine ApoB expression relative to 2 liver-specific housekeeping control mRNAs. Each analysis reaction was performed in triplicate.

In the case of “ApoB #02: murine and human sequence-compatible ApoB BNA(NC) antisense oligo 5′-GCattggtatTCA-3′ [SEQ ID NO: 12] (antisense GCATTGGTATTCA; sugars from the 5' end [BNANC]2 d8 [BNANC]3, all phosphorothioate, 5' {ThiolC6}, methylation of C not given here)”, the pIC50 (ApoB RNA [1]; 72 hrs, read-out: IC50 ApoB RNA down-modulation) was 7.70, the “fold less potent in ApoB RNA down-modulation than (GalNAc)3-ApoB #02 combined with SO1861-EMCH or (GalNAc)3-SO1861” value (ApoB RNA [1]) was 100-667 fold and the “reduction of serum LDL-C compared to vehicle” value (LDL-cholesterol; 0.1 mg/kg iv alone, 24 hrs) was “not noticeably reduced”. The “reduction of serum LDL-C compared to vehicle” value (LDL-cholesterol; 1 mg/kg iv alone, 24 hrs) was “not noticeably reduced”, the “reduction of serum LDL-C compared to vehicle” value (LDL-cholesterol; 2 mg/kg iv alone, 24 hrs) was “not noticeably reduced” and the “reduction of serum LDL-C compared to vehicle” value (LDL-cholesterol; 2 mg/kg iv alone, 72 hrs) was 50%. The “reduction of serum LDL-C” value (LDL-cholesterol; 2 mg/kg iv alone, 336 hrs) was 40%, the “tolerability (clinical observations, adverse findings)” value [2] was “well tolerated” and the “reduction of liver ApoB RNA levels compared to vehicle” value (“reduction of liver ApoB RNA levels” for short) (ApoB RNA [3]; 0.1 mg/kg iv alone, 24 hrs) was “not noticeably reduced”. For the same substance, the “reduction of liver ApoB RNA levels” value (ApoB RNA [3]; 1 mg/kg iv alone, 24 hrs) was roughly 15%, the “reduction of liver ApoB RNA levels” value (ApoB RNA [3]; 2 mg/kg iv alone, 24 hrs) was roughly 21% and the “reduction of liver ApoB RNA levels” value (ApoB RNA [3]; 2 mg/kg iv alone, 72 hrs) was 39%. For the same substance, the “reduction of liver ApoB RNA levels” value (ApoB RNA [3]; 2 mg/kg iv alone, 336 hrs) was 30%.
